Data on four sequences can be found in patent publication US20180133327A1, “Cell Penetrating Peptides and Complexes Comprising the Same” (Amal Therapeutics SA, priority 2015, published 2018).

Test [1] relates to OVA257-264-specific CD8+ T cells from OT-1 T cell receptor (TCR) transgenic mice. The experiment in a line: Identification of the best ZEBRA CPP truncations in vitro (proliferation assay) and in vivo (CD8 T cell immune response after vaccination). It is filed as cell-based, mouse (C57BL/6. As to conditions: each CPP truncation conjugated to OVACD8 epitope; in vitro BMDCs loaded with 0.3 μM, 4 days with OT-1 cells; in vivo 10 nmol s.c. wk0 and wk2 with anti-CD40 and Hiltonol. An excerpt: The functionality of the different ZEBRA CPP truncations was validated both in vitro and in vivo, based on the capacity to stimulate MHC class-I restricted CD8 T cells specific for a model antigen OVA (OVA257-264-specific CD8^+ T cells from OT-1 T cell receptor (TCR) transgenic mice). This capacity should reflect transport of the OVA antigen cargo into APCs. The functional read-out of these experiments was proliferation of OVA-specific CD8 T cells in vitro (FIG. 2A), and for the in vivo studies, the induction of OVA-specific CD8 T cells in the blood of mice vaccinated with the different CPP-OVA conjugates together with adjuvant (FIG. 2B).
To assess the proliferation of OVA-specific CD8 T cells in vitro, bone marrow derived dendritic cells (BMDCs) were prepared from C57BL/6 mice as previously described (Santiago-Raber (2003), J. Exp. Med. 197, 777-788), and used at day 9-10 of culture.
BMDCs were loaded with 0.3 μM of each Zebra CPP truncation (Z13 to Z20) conjugated to OVACD8 epitope as described above for 4 hours at 37° C., washed 3 times, then matured overnight at 37° C. with 100 ng/ml LPS (from Salmonella abortus, equi S-form, Enzo Life Sciences). Antigen-loaded mature BMDC were then mixed at a ratio of 1:10 with OT-1 T cell receptor (TCR) transgenic mice splenocytes that had been stained with 10 μM 5-(and 6) Carboxyfluorescein diacetate succinimidyl ester (CFSE) (Life Technologies). After 4 days co-incubation of spleen cells and BMDCs, antigen-specific proliferation was assessed by flow cytometry, measuring CFSE dilution on CD8 T cells and live-gated cells. OT-1 mice express TCR specific for MHC class I restricted OVA257-264.
To assess the induction of OVA-specific CD8 T cells in vivo, C57/BL6 mice were assigned to nine different groups (Z12 to Z20, respectively). Each group of mice was vaccinated by subcutaneous injection of 10 nmol of one selected Zebra CPP truncation (one selected from Z12 to Z20) conjugated to OVACD8 epitope as described above with 100 μg of anti-CD40 at week0 and week2. Mice were also injected with 50 μg of Hiltonol i.m. (right hind leg). Mice were bled 1 wk after the 2nd vaccination in order to assess OVA257-264-specific CD8 T cells.

Test [2] relates to BMDC, mo-DCs, EL-4 or K562 cells. Kind of test: In vitro transduction with fluorescein-conjugated ZEBRA CPP truncation constructs (FACS). It is filed as cell-based, human and mouse. As to conditions: for kinetic of transduction (entry into cells): fluorescein-conjugated constructs (ZxxOVACD8FAM), 30 minutes, 2 h or 4 h, acidic wash, FACS. The method, then: Transduction was assessed in cells with high phagocytosis capacity (dendritic cells of human and mice origin) and in cells with poor phagocytosis capacity (T cells from human, K562, or mouse, EL4, origin). Cells were incubated for 30 minutes, 2 h or 4 h with the fluorescein-conjugated constructs (Z13OVACD8FAM, Z14OVACD8FAM, Z15OVACD8FAM or Z18OVACD8FAM) then subjected to a 30s wash with an acidic buffer to remove membrane bound peptide before FACS analysis.
In order to more directly assess the transduction capacities of the selected ZEBRA CPP truncations Z13, Z14, Z15 and Z18 fluorescein-conjugated constructs (Z13OVACD8FAM, Z14OVACD8FAM, Z15OVACD8FAM and Z18OVACD8FAM) were synthesized. To this end, 5-(and-6)-carboxyfluorescein (mixed isomers; e.g. ThermoFisher Scientific catalogue no. C194) was added to each of Z13OVACD8 (SEQ ID NO: 29), Z14OVACD8 (SEQ ID NO: 30), Z15OVACD8 (SEQ ID NO: 31) and Z18OVACD8 (SEQ ID NO: 34).
These fluorescein-conjugated constructs (Z13OVACD8FAM, Z14OVACD8FAM, Z15OVACD8FAM and Z18OVACD8FAM) were tested for their ability to transduce different human and mouse cell types, in particular (i) cells with high phagocytosis capacity, namely dendritic cells (DCs) of human […], and (ii) cells with poor phagocytosis capacity, namely T cells from human, K562, or mouse, EL4, origin). The EL-4 thymoma cell line was maintained in complete RPMI 1640 medium. The K562 cell line was maintained in complete Iscove's modified Dulbecco's medium. BMDC, mo-DCs, EL-4 or K562 cells were incubated for 4 h at 37° C. with the fluorescein-conjugated constructs as described above (Z13OVACD8FAM, Z14OVACD8FAM, Z15OVACD8FAM or Z18OVACD8FAM). For removal of membrane bound peptide prior to cell transduction, a 30s wash with an acidic buffer (0.2 M Glycine, 0.15 M NaCl, pH 3) was performed. Cells were then analyzed by flow cytometry (FACS).

In test [3] the test system is self antigen (CD8 epitope from gp100)-specific CD8 T cells. The experiment in a line: Self antigen-specific CD8 T cell response after vaccination (gp100CD8 restimulation, multimer staining). Particulars: 10 nmol ZxxOVACD4gp100CD8 s.c. wk0, wk2, wk9, combined with MPLA or Hiltonol. It counts as in vivo, mice. The method, then: The constructs were tested in combination with Hiltonol (A) and MPLA (B). Briefly, Mice were vaccinated three times (wk0, wk2 and wk9) by s.c. injection (right flank) of 10 nmol of Z13OVACD4gp1 00CD8, Z14OVACD4gp1 00CD8, Z18OVACD4gp100CD8 and i.m. injection of […] of Hiltonol (right hind leg) or s.c. injection of 20 μg of MPLA. One week after the last vaccination, spleen cells were restimulated in vitro for 7 days with gp100CD8 peptide and stained as described in Example 6.
To extend the previous findings to self antigen-specific immune response, Z13, Z14 and Z18 conjugated to antigenic cargo containing a self antigen (CD8 epitope from gp100) and CD4 T cell epitope from OVA were synthesized.
Firstly, those constructs were tested with Hiltonol or MPLA adjuvant. To this end, mice were vaccinated three times (wk0, wk2 and wk9) by s.c. injection (right flank) of 10 nmol of Z13OVACD4gp100CD8, Z14OVACD4gp100CD8, Z18OVACD4gp100CD8 and i.m. injection of 50 μg of Hiltonol (right hind leg) or s.c. injection of 20 μg of MPLA. One week after the last vaccination, spleen cells were restimulated in vitro for 7 days with gp100CD8 peptide and stained as follow. Briefly, for surface staining, after FcR blocking, the following mAb were used: CD4 (RMA4-4), CD8 (53-6.7), CD11b (M1/70), CD19 (6D5), all from BD Biosciences. Dead cells were identified with LIVE/DEAD yellow fluorescent reactive dye (L34959) from Life Technologies and were excluded from analyses. MHC-peptide multimers were from Immudex (Copenhagen, Denmark). Multimer gating strategy used a dump gate (CD4, CD11b, CD19) and excluded dead cells.

Consider “KRYKNRVASRKSRAKFK (CPP Z15) [ZEBRA CPP truncation]”, for which the “promoting cross-presentation (stimulation of OVA-specific CD8 T cells)” value (from here on “promoting cross-presentation”) in test [1] was “best truncations for promoting cross-presentation”. Further, in test [2], the “kinetic of transduction (entry into cells)” value (from here on “kinetic of transduction”) is on record as “slower”.
In the case of “KRYKNRVASRKSRAKFKQLLQHYREVAAAKSSENDRLRLLLK [Z13]”, the “promoting cross-presentation” value in test [1] is reported as “best truncations for promoting cross-presentation”. The “kinetic of transduction” value in test [2] is recorded as “rapidly entering in the majority of the cells”. Also, in test [3], the “self antigen-specific CD8 T cell immune response” value is “high self antigen-specific CD8 immune response”.
Turning to KRYKNRVASRKSRAKFKQLLQHYREVAAAK [Z14], in test [1], the “promoting cross-presentation” value is “best truncations for promoting cross-presentation”. Further, the “kinetic of transduction” value in test [2] is reported as “rapidly entering in the majority of the cells”. Moreover, the “self antigen-specific CD8 T cell immune response” value in test [3] is “high self antigen-specific CD8 immune response”.
For the sequence REVAAAKSSENDRLRLLLK [Z18], the “promoting cross-presentation” value in test [1] is “best truncations for promoting cross-presentation”. For the same sequence, the “kinetic of transduction” value in test [2] is reported as “slower”. For the same sequence, the “transduction efficacy, all cell types” value in test [2] (fluorescein-conjugated constructs, compared to other ZEBRA CPP truncations) is “lower transduction efficacy”. Also, the “self antigen-specific CD8 T cell immune response” value in test [3] is listed as “did not elicit self antigen-specific CD8 T cell responses”.
